From patent USRE44017E1, “N-acetyl aldosamines, N-acetylamino acids and related N-acetyl compounds and their topical use” (priority 1999, dated 2013)
Several values for one entry are separate records, joined by “and”; a condition that tells them apart may be missing. Identical values can stand only once.

Tests used:
forearm skin = experiment: Skin thickness of treated forearm measured by micrometer calipers; type: in vivo, human; settings: for increase in skin thickness: topically twice daily, treated forearm, no change in untreated forearm; for appearance of treated forearm: twice daily, untreated forearm still loose, thin and wrinkled
Description: In one of the studies related to skin changes associated with aging, skin thickness was measured by micrometer calipers as follows: The skin was grasped with a 2×6 cm metal hinge, the internal faces of the hinge were coated with emery cloth to prevent slippage, and manually squeezed to threshold subject discomfort. Combined thickness of two whole-skin layers including thickness of the two hinge leaves was measured with micrometer calipers. Thickness of the two hinge leaves was subtracted to determine the actual thickness of two whole-skin layers. Triplicate measurements on treated site were done and an average number was used for calculation of the skin thickness.

itch / pruritus = experiment: Topical application to itchy skin or scalp lesions of single subjects; type: in vivo, human; settings: person
Description: A subject, having an itchy lesion of lichen simplex chronicus on their right lower leg topically applied the above cream to the lesion.
A typical composition suitable for topical use on hair, scalp, nail and skin comprising for example N-acetylamino acid may be formulated as follows. N-Acetyl-DL-proline 2 g was dissolved in 98 ml solution prepared from water 40 ml, ethanol 40 ml and propylene glycol 20 ml. The composition with pH 2.7 contained 2% N-acetyl-DL-proline. A subject, having itchy scalp topically applied the above composition to itchy area of scalp.
N-Acetyl-L-lysine 2 g was dissolved in a 98 ml solution prepared from water 40 ml, ethanol 40 ml and propylene glycol 20 ml. The composition with pH 6.5 contained 2% N-acetyl-L-lysine. A subject, having an oily and pruritic scalp topically applied the above composition to the affected area of the scalp, and the area was dried with warm air to remove excess solvents.
The subject topically applied N-acetyl-DL-proline 5% in oil-in-water cream to the itchy lesions.
A subject with chronic nummular eczema and pruritic dry skin topically applied N-acetyl-DL-proline 5% in solution to itchy skin areas of eczema and dry skin lesions.
A subject, having axillary itch due to use of a conventional antiperspirant topically applied N-acetyl-DL-proline 5% in solution to itchy underarm skin areas.
The subject topically applied N-acetyl-L-glutamine 5% in a solution prepared from water 4 parts, ethanol 4 parts and propylene glycol 2 parts by volume.
The subject topically applied N-acetyl-α-D-glucosamine 5% in a solution prepared from water 4 parts, ethanol 4 parts and propylene glycol 2 parts by volume.

[1] = ordinary storage conditions; results in a malodorous smell; cited from earlier work
[2] = test system: forearm skin (epidermis, papillary dermis); experiment: Biological effects of topically applied N-acetyl compound on skin: test chambers on forearm, punch biopsy, histochemical staining; type: in vivo, human; settings: 2% solution in water/propylene glycol, occlusive test chambers renewed twice weekly, five weeks
Description: In order to determine biological effects of a topically applied N-acetyl compound of the instant invention, seven women and one person of ages ranging from 58 to 81 years participated in this study. Topical formulation for the study was N-acetyl-L-cysteine 2% in a solution prepared from water 80 ml and propylene glycol 20 ml. Test sites were 1 cm square sites on extensor surface of forearm, 5 cm from the antecubital crease, a grid pattern formed by Hayes Test Chambers on Hayes adhesive strips. Each test chamber, 1 cm square, contained a square piece of filter paper which was fully moistened with 0.033 ml test solution. Test chambers were impressed on the skin to leave outlines which were marked with Sanford Sharpie permanent marker. Sites were re-marked at each successive application of test solutions. Vehicle control sites were on the opposite forearm. Filter paper of each chamber was saturated with 0.033 ml solution and chambers were fixed in place with the Hayes adhesive tape that held the test and vehicle chambers. […] Punch biopsy specimens, 3 mm or 4 mm in diameter, were secured at the end of the study, and specimens were processed and analyzed. […] Epidermal thickness was measured with Micro Image Analysis System, and the mean thickness was expressed as area of epidermis/horizontal length. The thickness of papillary dermis (upper dermis) was also measured.

[3] = test system: xerosis and dry skin on lower legs; experiment: Topical treatment of xerosis and dry skin; type: in vivo, human; settings: 5% cream, twice daily, one week, subject
From the text: A subject who had xerosis and dry skin on lower legs topically applied twice daily 5% N-acetyl-glucosamine cream for one week. After a few days of topical treatment, the skin became less rough and scaly, and felt smooth.

[4] = test system: adolescent acne with multiple papules and pustules on face; experiment: Topical treatment of acne; type: in vivo, human; settings: 5% solution, twice daily, after a few days, subject
From the text: A subject who had adolescent acne with multiple papules and pustules on their face applied topically twice daily 5% N-acetyl-glucosamine solution.

[5] = test system: photodamaged / photoaged skin; settings: cited from earlier work
[6] = 5% cream, three weeks, one subject per value
[7] = 2% solution (water/ethanol/propylene glycol), pH 2.7, itchy scalp
[8] = 5% in oil-in-water cream, chronic Grover's Disease
[9] = 5% in solution, axillary itch due to antiperspirant
[10] = 5% in solution, chronic nummular eczema and pruritic dry skin
[11] = 10% cream, three weeks, one subject per value
[12] = 5% in solution, acute urticaria
[13] = 10% cream, four weeks, one subject per value
[14] = 5% in solution of water 4, ethanol 4, propylene glycol 2 parts, chronic Grover's Disease
[15] = 2% solution, pH 6.5, oily and pruritic scalp
[16] = 0.1% cream, topical application for 8 to 12 months (Weiss et al., JAAD 1988)

CC(=O)NC1CCSC1=O (racemic) [N-acetyl-DL-homocysteine thiolactone]
increase in skin thickness (forearm skin; [6]): 89% and 21%
appearance of treated forearm (forearm skin; 5% cream, three weeks): more firm, smooth, plump and minimally wrinkled when lifted

CC(=O)N1CCCC1C(=O)O (racemic) [N-acetyl-DL-proline]
scalp itch a few minutes after topical application (itch / pruritus; [7]): disappeared completely
time scalp remained free of itch (itch / pruritus; [7]): 24 h
severe itch a few minutes after topical application (itch / pruritus; [8]): disappeared completely
time lesions remained free of itch (itch / pruritus; [8]): 12 h
itch within a few minutes after topical application (itch / pruritus; [9]): disappeared completely
time skin remained free of itch (itch / pruritus; [9]): five
itch a few minutes after topical application (itch / pruritus; [10]): disappeared completely
time lesions remained free of itch (itch / pruritus; [10]): 48 h

CC(=O)NC(Cc1c[nH]c2ccccc12)C(=O)O (racemic) [N-acetyl-DL-tryptophan]
increase in skin thickness (forearm skin; 10% cream, five weeks, one subject): 12%
increase in skin thickness (forearm skin; [11]): 11% and 21%
appearance of treated forearm (forearm skin; 10% cream, five weeks): more firm, smooth, plump and minimally wrinkled when lifted
appearance of treated forearm (forearm skin; 10% cream, three weeks): more firm, smooth, plump and minimally wrinkled when lifted

CC(=O)N[C@H]1C(O)O[C@H](CO)[C@H](O)[C@@H]1O (stereo partly drawn) [N-acetyl-D-galactosamine]
effect on urticarial lesions (itch / pruritus; [12]): concomitant disappearance of urticarial lesions
severe itch a few minutes after topical application (itch / pruritus; [12]): disappeared completely
time skin remained free of itch (itch / pruritus; [12]): 24 h

CC(=O)N[C@@H](CCCNC(=N)N)C(=O)O [N-acetyl-L-arginine]
increase in skin thickness (forearm skin; [13]): 32% and 22%
appearance of treated forearm (forearm skin; 10% cream, four weeks): more firm, smooth, plump and minimally wrinkled when lifted

COC(=O)[C@H](CS)NC(C)=O [N-acetyl-L-cysteine methyl ester]
increase in skin thickness (forearm skin; [6]): 13% and 87%
appearance of treated forearm (forearm skin; 5% cream, three weeks): more firm, smooth, plump and minimally wrinkled when lifted
increase in skin thickness (forearm skin; [11]): 26%
appearance of treated forearm (forearm skin; 10% cream, three weeks): more firm, smooth, plump and minimally wrinkled when lifted

CC(=O)N[C@@H](CS)C(=O)O [N-acetyl-L-cysteine]
stability on storage [1]: degrade under ordinary storage conditions
average increase in thickness of epidermis over the control ([2]; 8 subjects aged 58 to 81, vehicle control on opposite forearm): 96%
increase in production of hyaluronic acid in papillary dermis over the control ([2]; all test sites): 47-227%
increase in skin thickness (forearm skin; [6]): 14%
appearance of treated forearm (forearm skin; 5% cream, three weeks): more firm, smooth, plump and minimally wrinkled when lifted

CC(=O)N[C@@H](CCC(N)=O)C(=O)O [N-acetyl-L-glutamine]
severe itch a few minutes after topical application (itch / pruritus; [14]): disappeared completely
time lesions remained free of itch (itch / pruritus; [14]): 24 h

CC(=O)N[C@@H](CCCCN)C(=O)O [N-acetyl-L-lysine]
scalp itch a few minutes after topical application (itch / pruritus; [15]): disappeared completely
time scalp remained free of itch (itch / pruritus; [15]): 12 h

CCOC(=O)[C@H](Cc1ccc(O)cc1)NC(C)=O [N-acetyl-L-tyrosine ethyl ester]
increase in skin thickness (forearm skin; [13]): 11% and 34%
appearance of treated forearm (forearm skin; 10% cream, four weeks): more firm, smooth, plump and minimally wrinkled when lifted

CC(=O)N[C@@H]1[C@@H](O)[C@H](O)[C@@H](CO)O[C@@H]1O [N-acetyl-glucosamine, N-Acetyl-α-D-glucosamine]
severe itch a few minutes after topical application (itch / pruritus; [14]): disappeared completely
time lesions remained free of itch (itch / pruritus; [14]): 24 h
increase in skin thickness (forearm skin; [11]): 37%
appearance of treated forearm (forearm skin; 10% cream, three weeks): more firm, smooth, plump and minimally wrinkled when lifted
effect on xerosis and dry skin [3]: returned to normal-looking skin
effect on acne lesions [4]: most lesions became less inflamed and gradually eradicated

CC1=C(/C=C/C(C)=C/C=C/C(C)=C/C(=O)O)C(C)(C)CCC1 [tretinoin]
effect on photodamaged skin ([5]; 0.05% in a cream, daily topical application (Kligman et al. 1986)): improve photodamaged skin
effect on aging skin [5, 16]: improve clinical signs of aging skin
side effects [5, 16]: burning sensation in the eyes and mild skin irritations
patients encountering dermatitis (side-effect) ([5]; 0.1%, daily topical application, 16 weeks (Weiss et al., JAMA 1988)): 92%
effect on photoaged skin ([5]; 0.1%, daily topical application, 16 weeks, compared to vehicle alone (Weiss et al., JAMA 1988)): improve photoaged skin
